Consider 10 molecules from patent US4658029A, “1-Hpyrazolo[3,4-b]pyridines” (Hoechst-Roussel Pharmaceuticals Inc., priority 1986, dated 1987).

Assay [1] concerns 2-phenyl-1,4-benzoquinone-induced writhing. In words: 2-phenyl-1,4-benzoquinone-induced writhing test in mice (analgesic activity, PQW). In kind it is in vivo. Conditions: for Analgesic PQW, % decrease (phenylquinone writhing): 20 mg/kg, SC.
For assay [2], the system named is spontaneous hypertensive rat. In words: Antihypertensive activity in the spontaneous hypertensive rat (SHR), indirect tail cuff method. Type of assay: in vivo. The note with it: 50 mg/kg, PO, treated orally for three days, drop measured on third day. The procedure:
The 6H-isoxazolo[5,4-d]pyrazolo[…] of formula I of the present invention are useful as antihypertensive agents due to their ability to depress blood pressure in mammals. Antihypertensive activity is measured in the spontaneous hypertensive rat by the indirect tail cuff method described in "Methods in Pharmacology", A. Schwartz, Ed., Vol. I, Appleton-Century Crofts, New York, N.Y., 1971, p. 135. In this procedure a group of five animals are treated orally for three days with the test compound in relation to a control group of the same number. The drop in blood pressure is measured on the third day following administration. The antihypertensive activities of some of the compounds, expressed as a decrease in mean arterial blood pressure (in mmHg), are given in Table I.

One may read the ED50 as the midpoint of the dose-response relation.

On to “6-Ethyl-3-tolyl-6H-isoxazolo[5,4-d]pyrazolo[3,4-b]pyridine”, for which the “Analgesic PQW, % decrease (phenylquinone writhing)” value (from here on “Analgesic PQW, % decrease”) in assay [1] is listed as 48%.
Regarding `CCn1ncc2c3onc(-c4ccc(Cl)cc4)c3cnc21` [3-(4-Chlorophenyl)-6-ethyl-6H-isoxazolo[5,4-d]pyrazolo[3,4-b]pyridine], in assay [2], the “Antihypertensive SHR (decrease in mean arterial blood pressure)” value is reported as 62 mmHg.
For the molecule `CCn1ncc2c3onc(-c4ccccn4)c3cnc21` [6-Ethyl-3-(2-pyridyl)-6H-isoxazolo[5,4-d]pyrazolo[3,4-b]pyridine], the “Analgesic PQW, % decrease” value in assay [1] was 42%.
The same measure, in the same setting: with `CCn1ncc2c3onc(-c4cccc(F)c4)c3cnc21` [6-Ethyl-3-(3-fluorophenyl)-6H-isoxazolo[5,4-d]pyrazolo[3,4-b]pyridine] the figure was 55%; with `CCn1ncc2c3onc(-c4cccc(O)c4)c3cnc21` [6-Ethyl-3-(3-hydroxyphenyl)-6H-isoxazolo[5,4-d]pyrazolo[3,4-b]pyridine], 48%.
Consider `CCn1ncc2c3onc(-c4cccc(C)c4)c3cnc21` [6-Ethyl-3-(3-tolyl)-6H-isoxazolo[5,4-d]pyrazolo[3,4-b]pyridine], for which the “Antihypertensive SHR (decrease in mean arterial blood pressure)” value in assay [2] was 33 mmHg.
Take `CCn1ncc2c3onc(-c4ccc(F)cc4)c3cnc21` [6-Ethyl-3-(4-fluorophenyl)-6H-isoxazolo[5,4-d]pyrazolo[3,4-b]pyridine]: the “Analgesic PQW, % decrease” value in assay [1] is 31%.
`CCn1ncc2c3onc(-c4ccc(OC)cc4)c3cnc21` [6-Ethyl-3-(4-methoxyphenyl)-6H-isoxazolo[5,4-d]pyrazolo[3,4-b]pyridine]: the “Antihypertensive SHR (decrease in mean arterial blood pressure)” value in assay [2] amounted to 31 mmHg.
For the molecule `CCC(=O)O[C@](Cc1ccccc1)(c1ccccc1)[C@H](C)CN(C)C` [Propoxyphene, reference compound], the ED50 in assay [1] (Mus musculus, sc, prior art compound, read-out: ED50 (phenylquinone writhing)) stood at 3.9 mg/kg.
For the molecule `C[C@](N)(Cc1ccc(O)c(O)c1)C(=O)O` [alpha-Methyldopa, reference compound], the “Antihypertensive SHR (decrease in mean arterial blood pressure)” value in assay [2] is reported as 40 mmHg.
